# Reference: patent publication US20250320496A1, “MODULATION OF ABCB11 GENE TRANSCRIPTION USING ANTISENSE OLIGONUCLEOTIDES TARGETING REGULATORY RNAS” (CAMP4 Therapeutics Corporation, priority 2022, published 2025)
# Strand notation (5' to 3'): a small letter for the sugar, then the base; units joined by * are phosphorothioate-linked, units joined directly phosphodiester-linked; [ ] holds rarer units or linkages, { } end groups; capitals alone tell only the bases. e = 2'-O-(2-methoxyethyl) (MOE); l = locked nucleic acid (LNA); [5mC] = 5-methylcytosine; d = 2'-deoxy (DNA)
# Tested on: human ABCB11 mRNA
# Assay: ASO treatment of primary human hepatocytes (PHH), ABCB11 mRNA by RT-qPCR normalized to B2M
# Format: cell-based
# Details: primary human hepatocytes; for ABCB11 mRNA FC (5 μM ASO vs. UNT): normalized to untreated PHHs (UNT); for ABCB11 FC mRNA (5 μM ASO vs. untreated): 5 μM ASO with PO-modifications, normalized to untreated hepatocytes
# Outline: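 Plated primary human hepatocytes were treated 4 h post-thaw with ASO (e.g., 1.25–10 μM; initial screen 5 μM) in medium containing 0.3 mg/ml Matrigel for 72 hrs. Total RNA was reverse-transcribed and ABCB11 mRNA measured by Taqman RT-qPCR, normalized to B2M, with fold change versus untreated PHHs.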
Substance,ABCB11 mRNA FC (5 μM ASO vs. UNT) [fold change],ABCB11 FC mRNA (5 μM ASO vs. untreated) [fold change]
CO-7005 (antisense eG*eT*eG*eG*eA*eT*dG*dT*dA*dG*dA*dT*dG*dA*dA*dT*eG*eG*e[5mC]*eA*eA*eG),1.257,–
CO-11233 (antisense eG*eTlG*eGeA*lGe[5mC]*eAlA*eAe[5mC]*lTeA*eGlG*e[5mC]eA*l[5mC]eT*eG),–,1.60
CO-12755 (antisense eG*eT*eGeA*eGeG*e[5mC]eA*eTe[5mC]*eAeG*eGeT*eAeA*eGeT*eT*e[5mC]),–,0.99
CO-6987 (antisense eT*eG*eG*eA*lT*dG*dT*dA*lG*dA*dT*dG*lA*dA*dT*eG*lG*e[5mC]*eA*eA),1.026,–
CO-11224 (antisense eG*eT*lGeGeAlGe[5mC]*eA*lA*eA*e[5mC]*lT*eA*eGlGe[5mC]eAl[5mC]*eT*eG),–,1.88
CO-7208 (eT*eT*eT*eG*eG*e[5mC]*eG*eT*eT*eA*eT*eT*eA*eA*eT*eT*e[5mC]*eT*eA*e[5mC]*eA*eG*eA*eG; antisense),1.339,–
CO-4489 (antisense e[5mC]*eA*e[5mC]*eA*eG*eA*eG*eT*eG*e[5mC]*e[5mC]*eA*eA*eG*eG*eA*eG*eT*eT*eA),1.083,–
CO-4022 (antisense eG*eA*eT*eG*eA*e[5mC]*eT*e[5mC]*eT*eT*eG*eG*eT*eT*eG*e[5mC]*eT*eG*eT*e[5mC]),1.168,–
CO-6994 (antisense eT*eG*eG*eA*lT*eG*eT*eA*eG*lA*eT*eG*eA*eA*lT*eG*eG*e[5mC]*eA*eA),1.131,–
CO-3988 (antisense eA*eA*eA*eT*eG*e[5mC]*e[5mC]*e[5mC]*eA*eA*eG*eT*eT*eT*e[5mC]*eA*eT*eT*eG*e[5mC]),1.827,–
CO-4523 (antisense eT*e[5mC]*eT*eG*e[5mC]*eA*eA*eA*eT*eT*eA*eA*eG*eA*eA*eG*e[5mC]*eA*e[5mC]eT),1.037,–
CO-7165 (antisense eT*eT*eA*eA*eT*eT*e[5mC]*eT*eA*e[5mC]*eA*eG*eA*eG*eG*eG*eA*eG*e[5mC]*eA),1.329,–
CO-7199 (eA*eG*eG*eT*eG*eG*eA*dG*d[5mC]*dA*dA*dA*d[5mC]*dT*dA*dG*dG*e[5mC]*eA*e[5mC]*eT*eG*eA*eG; antisense),1.166,–
CO-7210 (eT*eT*eT*eG*eG*d[5mC]*dG*lT*dT*dA*lT*dT*dA*lA*dT*dT*l[5mC]*dT*dA*e[5mC]*eA*eG*eA*eG; antisense),1.362,–
CO-4052 (antisense e[5mC]*e[5mC]*eA*eG*eG*eG*eT*eG*e[5mC]*eA*eA*eG*eA*eG*eT*eT*eG*eT*e[5mC]*eT),1.054,–
CO-11209 (antisense eT*eGeT*eTeT*eTeG*e[5mC]eT*eTeG*eGeT*e[5mC]eA*eAeG*eAeG*eG),–,1.11
CO-7094 (eA*e[5mC]*e[5mC]*e[5mC]*l[5mC]*e[5mC]*e[5mC]*eT*l[5mC]*eA*e[5mC]e[5mC]*lT*eT*eG*eG*lT*eT*e[5mC]*e[5mC]),0.993,–
CO-4511 (antisense eG*eT*eG*eG*eG*eA*eG*eT*eG*eG*eT*eA*eA*eG*eA*eT*eT*eA*eG*e[5mC]),1.182,–
CO-7093 (eA*e[5mC]*l[5mC]*e[5mC]*e[5mC]*l[5mC]*e[5mC]*eT*l[5mC]*eA*e[5mC]*l[5mC]*eT*eT*lG*eG*eT*lT*e[5mC]*e[5mC]; antisense),1.269,–
CO-6971 (antisense eA*eT*eG*eG*eG*eT*eG*eT*eG*eG*eA*eT*eG*eT*eA*eG*eA*eT*eG*eA),1.091,–
CO-7168 (antisense eT*eG*eG*e[5mC]*eG*dT*dT*dA*dT*dT*dA*dA*dT*dT*d[5mC]*eT*eA*e[5mC]*eA*eG),1.301,–
CO-4061 (antisense eA*eT*eT*e[5mC]*eA*eT*eT*eG*e[5mC]*eT*eG*eA*eA*eG*eG*e[5mC]*eT*eG*eG*eA),1.233,–
CO-4516 (antisense eA*eT*eG*eA*e[5mC]*eA*eT*eG*eA*eT*eA*eG*e[5mC]*eA*e[5mC]*e[5mC]*e[5mC]*eA*eA*e[5mC]),1.033,–
CO-4501 (antisense eG*e[5mC]*eA*eT*eG*eG*eT*eA*eG*e[5mC]*eT*eA*eG*eT*eG*eA*eT*eA*eA*eT),1.023,–
CO-11210 (antisense eG*eT*lG*eG*lAeGl[5mC]*eA*lA*eA*l[5mC]*eT*lA*eGlGe[5mC]*lA*e[5mC]*eT*eG),–,2.79
CO-7177 (antisense eG*eT*eG*eG*lA*dG*d[5mC]*dA*lA*dA*d[5mC]*dT*lA*dG*dG*e[5mC]*lA*e[5mC]*eT*eG),1.455,–

Substance,ABCB11 mRNA FC (5 μM ASO vs. UNT) [fold change],ABCB11 FC mRNA (5 μM ASO vs. untreated) [fold change]
CO-7107 (eA*e[5mC]*eA*eT*eT*eT*eA*eG*eA*eG*eA*e[5mC]*eA*eA*eA*eG*eA*eA*eT*e[5mC]*eG*e[5mC]; antisense),1.148,–
CO-4025 (antisense eA*e[5mC]*eG*e[5mC]*eT*eA*e[5mC]*eA*eA*eT*eA*e[5mC]*eT*eT*eG*eG*eA*eT*eA*eG),0.832,–
CO-6998 (antisense eG*eT*eG*lA*eG*lG*e[5mC]*lA*eT*l[5mC]*eA*lGeG*lT*eA*lA*eG*lT*eT*e[5mC]),1.246,–
CO-4042 (antisense e[5mC]*eT*e[5mC]*eT*e[5mC]*eG*eT*eT*e[5mC]*e[5mC]*eA*eA*eG*eG*eT*eG*eA*eA*eT*e[5mC]),0.605,–
CO-4490 (antisense e[5mC]*eG*eA*eG*eA*eA*eA*eA*eT*eG*eA*eG*eG*eT*eA*e[5mC]*eA*eT*eG*eG),1.158,–
CO-7197 (eG*eG*eT*eG*eG*dA*dG*d[5mC]*eA*dA*dA*d[5mC]*dT*eA*dG*dG*d[5mC]*eA*e[5mC]*eT*eG*eA; antisense),1.364,–
CO-4013 (antisense eT*eT*eG*eA*eA*eA*eG*e[5mC]*eT*eG*eG*eT*eT*eT*eA*eA*eT*eG*e[5mC]*eA),1.166,–
CO-11216 (antisense eG*eT*lG*eG*lAeG*l[5mC]*eA*lAeA*l[5mC]*eT*lAeG*lG*e[5mC]*lAe[5mC]*eT*eG),–,2.58
CO-4033 (antisense eG*eA*eA*eA*e[5mC]*e[5mC]*eT*eT*eT*eT*eA*eA*e[5mC]*eT*e[5mC]*eT*e[5mC]*e[5mC]*eA*e[5mC]),1.472,–
CO-7032 (antisense eA*e[5mC]*eA*eA*eA*eG*eA*eA*eT*e[5mC]*eG*e[5mC]*eT*eG*eT*eG*eG*e[5mC]*eA*eG),1.093,–
CO-7160 (antisense eT*eG*eT*eG*eG*eA*eG*eG*eT*eG*eG*eA*eG*e[5mC]*eA*eA*eA*e[5mC]*eT*eA),1.312,–
CO-4487 (antisense eG*e[5mC]*eA*eA*eG*eG*eT*e[5mC]*e[5mC]*eA*eG*eG*eG*eT*eG*eT*eA*eT*eT*e[5mC]),1.052,–
CO-4480 (antisense e[5mC]*e[5mC]*eT*eG*eA*eG*eA*eT*eT*eG*eA*eG*e[5mC]*eT*eA*eT*eA*e[5mC]*eT*eG),0.931,–
CO-7006 (antisense eG*eT*eG*eG*eA*eT*eG*eT*eA*eG*eA*eT*eG*eA*eA*eT*eG*eG*e[5mC]*eA*eA*eG),1.279,–
CO-7148: derivative ASO with additional chemical modifications based on parent ASO CO-4517 (antisense e[5mC]*e[5mC]*eT*eT*eA*eG*dG*dA*dG*dG*dA*dT*dT*dA*dT*dT*eT*eA*eA*e[5mC]*e[5mC]*eT),1.527,–
CO-7106 (eA*e[5mC]*eA*eT*eT*eT*dA*dG*dA*dG*dA*d[5mC]*dA*dA*dA*dG*eA*eA*eT*e[5mC]*eG*e[5mC]; antisense),1.246,–
CO-6985 (antisense eT*eG*eG*eA*eT*lG*dT*dA*lG*dA*dT*lG*dA*dA*lT*eG*eG*e[5mC]*eA*eA),1.414,–
CO-7027 (antisense e[5mC]*eG*eA*e[5mC]*eA*eG*eT*eG*eA*eG*e[5mC]*eT*eT*eA*eT*e[5mC]*eT*eG*eG*eA),1.304,–
CO-4040 (antisense eG*eT*eT*eT*e[5mC]*e[5mC]*e[5mC]*eA*eA*eG*e[5mC]*eA*e[5mC]*eA*e[5mC]*eT*e[5mC]*eT*eG*eT),0.921,–
CO-7147 (antisense e[5mC]*eT*eT*eA*lG*eG*eA*eG*eG*lA*eT*eT*eA*eT*lT*eT*eA*eA*e[5mC]*e[5mC]),1.272,–
CO-4019 (antisense eA*eG*eA*eG*eT*eG*eG*eT*eG*eT*eA*e[5mC]*eA*eT*eG*eG*eG*eT*eG*eT),1.028,–
CO-7036 (antisense eG*eT*eA*e[5mC]*eA*eT*eT*eT*eA*eG*eA*eG*eA*e[5mC]*eA*eA*eA*eG*eA*eA),1.129,–
CO-11214 (antisense eG*eT*lGeG*lA*eG*l[5mC]*eAlA*eA*l[5mC]*eT*lAeG*lG*e[5mC]*lA*e[5mC]eT*eG),–,2.90
CO-11244 (antisense eG*eT*eGeG*lAeG*e[5mC]eA*eAlA*e[5mC]eT*eAeG*lGe[5mC]*eAe[5mC]*eT*eG),–,1.29
CO-3992 (antisense eT*eG*eT*eT*eT*e[5mC]*e[5mC]*eT*eA*eG*eT*eA*e[5mC]*e[5mC]*eA*eA*eG*eA*eA*eT),1.388,–
